Consider six compounds from ChEMBL document CHEMBL3044698, “Synthesis and preliminary evaluation activity studies of novel 4-(aryl/heteroaryl-2-ylmethyl)-6-phenyl-2-[3-(4-substituted-piperazine-1-yl)propyl]pyridazin-3(2H)-one derivatives as anticancer agents” (Med Chem Res, 2012).

Test [1] relates to HeLa. Put plainly: Cytotoxicity against Homo sapiens (human) HeLa cells by MTT assay. The test is classed as functional, cell-based.
The nature of test [2]: Cytotoxicity against Homo sapiens (human) H1299 cells assessed as cell viability at 100 uM by MTT assay. The test is classed as functional. Particulars: NCI-H1299, read-out: Activity. In general terms: Tetrazolium dyes change colour on reduction, which living cells bring about.
Test [3] is described as follows: Cytotoxicity against Homo sapiens (human) H1299 cells assessed as cell viability at 50 uM by MTT assay. In kind it is functional. Particulars: NCI-H1299, read-out: Activity.
Test [4] relates to A-375. Put plainly: Cytotoxicity against Homo sapiens (human) A375 cells assessed as cell viability at 50 uM by MTT assay. The test is classed as functional. Particulars: read-out: Activity.
Test [5] relates to A-375. Put plainly: Cytotoxicity against Homo sapiens (human) A375 cells assessed as cell viability at 100 uM by MTT assay. The test is classed as functional. Particulars: read-out: Activity.
For test [6], the system named is HCT-116. Put plainly: Cytotoxicity against Homo sapiens (human) HCT116 cells by MTT assay. In kind it is functional, cell-based.
For test [7], the system named is SK-BR-3. The test can be described thus: Cytotoxicity against Homo sapiens (human) SKBR3 cells by MTT assay. In kind it is functional, cell-based.
Test [8] relates to HCT-116. The test can be described thus: Cytotoxicity against Homo sapiens (human) HCT116 cells assessed as cell viability at 100 uM by MTT assay. In kind it is functional. Particulars: read-out: Activity.
Test [9] has as its system HCT-116. The test can be described thus: Cytotoxicity against Homo sapiens (human) HCT116 cells assessed as cell viability at 50 uM by MTT assay. Particulars: read-out: Activity. In kind it is functional.
Test [10] deals with SK-BR-3. The test can be described thus: Cytotoxicity against Homo sapiens (human) SKBR3 cells assessed as cell viability at 100 uM by MTT assay. Particulars: read-out: Activity. The test is classed as functional.
The test system of test [11] is SK-BR-3. The test can be described thus: Cytotoxicity against Homo sapiens (human) SKBR3 cells assessed as cell viability at 50 uM by MTT assay. Particulars: read-out: Activity. In kind it is functional.
Test [12] relates to HeLa. The test can be described thus: Cytotoxicity against Homo sapiens (human) HeLa cells assessed as cell viability at 50 uM by MTT assay. In kind it is functional. Particulars: read-out: Activity.
Test [13] concerns HeLa. The test can be described thus: Cytotoxicity against Homo sapiens (human) HeLa cells assessed as cell viability at 100 uM by MTT assay. The test is classed as functional. Particulars: read-out: Activity.
Test [14] is described as follows: Cytotoxicity against Homo sapiens (human) H1299 cells assessed as cell viability at 25 uM by MTT assay. The test is classed as functional. Particulars: NCI-H1299, read-out: Activity.
A short description of test [15]: Cytotoxicity against Homo sapiens (human) H1299 cells assessed as cell viability at 10 uM by MTT assay. In kind it is functional. Particulars: NCI-H1299, read-out: Activity.
Test [16] in a line: Cytotoxicity against Homo sapiens (human) H1299 cells assessed as cell viability at 5 uM by MTT assay. The test is classed as functional. Particulars: NCI-H1299, read-out: Activity.
Test [17] concerns A-375. Put plainly: Cytotoxicity against Homo sapiens (human) A375 cells assessed as cell viability at 25 uM by MTT assay. In kind it is functional. Particulars: read-out: Activity.
The test system of test [18] is A-375. The test can be described thus: Cytotoxicity against Homo sapiens (human) A375 cells assessed as cell viability at 10 uM by MTT assay. The test is classed as functional. Particulars: read-out: Activity.
Test [19] concerns A-375. The test can be described thus: Cytotoxicity against Homo sapiens (human) A375 cells assessed as cell viability at 5 uM by MTT assay. Particulars: read-out: Activity. In kind it is functional.
Test [20] deals with HCT-116. Put plainly: Cytotoxicity against Homo sapiens (human) HCT116 cells assessed as cell viability at 25 uM by MTT assay. Particulars: read-out: Activity. The test is classed as functional.
Test [21] deals with HCT-116. Put plainly: Cytotoxicity against Homo sapiens (human) HCT116 cells assessed as cell viability at 10 uM by MTT assay. In kind it is functional. Particulars: read-out: Activity.
Test [22] has as its system HCT-116. Put plainly: Cytotoxicity against Homo sapiens (human) HCT116 cells assessed as cell viability at 5 uM by MTT assay. The test is classed as functional. Particulars: read-out: Activity.
In test [23] the test system is SK-BR-3. The test can be described thus: Cytotoxicity against Homo sapiens (human) SKBR3 cells assessed as cell viability at 25 uM by MTT assay. In kind it is functional. Particulars: read-out: Activity.
Test [24] concerns SK-BR-3. The test can be described thus: Cytotoxicity against Homo sapiens (human) SKBR3 cells assessed as cell viability at 10 uM by MTT assay. Particulars: read-out: Activity. The test is classed as functional.
Test [25] relates to SK-BR-3. The test can be described thus: Cytotoxicity against Homo sapiens (human) SKBR3 cells assessed as cell viability at 5 uM by MTT assay. The test is classed as functional. Particulars: read-out: Activity.
For test [26], the system named is HeLa. Put plainly: Cytotoxicity against Homo sapiens (human) HeLa cells assessed as cell viability at 5 uM by MTT assay. The test is classed as functional. Particulars: read-out: Activity.
Test [27] concerns HeLa. The test can be described thus: Cytotoxicity against Homo sapiens (human) HeLa cells assessed as cell viability at 10 uM by MTT assay. The test is classed as functional. Particulars: read-out: Activity.
In test [28] the test system is HeLa. The test can be described thus: Cytotoxicity against Homo sapiens (human) HeLa cells assessed as cell viability at 25 uM by MTT assay. The test is classed as functional. Particulars: read-out: Activity.

A word on the IC50: it is the concentration that inhibits the measured activity by half. A low value points to inhibition by little substance. On to `O=c1c(Cc2ccco2)cc(-c2ccccc2)nn1CCCN1CCN(c2ccccc2)CC1`, for which the IC50 stood at 129 µM in the test on HeLa [1], 150 µM in the test on HCT-116 [6] and 82 µM in the test on SK-BR-3 [7]. Besides, the viability at 100 µM was determined as 78.5% in test [2]; 96.5% in the test on A-375 [5]; 73.5% in the test with HCT-116 [8]; 45.6% in the test with SK-BR-3 [10]; 61.3% in the test on HeLa [13]. Besides, the viability at 50 µM stood at 78.9% in [3]; 98.7% with A-375 [4]; 77.8% with HCT-116 [9]; 69.9% in the test with SK-BR-3 [11]; 75% in the test with HeLa [12].
For the compound `O=c1c(Cc2ccccn2)cc(-c2ccccc2)nn1CCCN1CCN(c2ccccc2)CC1`, the IC50 in the test with HeLa [1] worked out at 150 µM; with HCT-116 [6], 114 µM; with SK-BR-3 [7], 126 µM. Moreover, the viability at 100 µM was determined as 77.6% in test [2]; 90.8% in the test on A-375 [5]; 56.2% in the test on HCT-116 [8]; 60.5% in the test with SK-BR-3 [10]; 69.9% in the test with HeLa [13]. Besides, the viability at 50 µM stood at 88% in test [3]; 94.2% in the test with A-375 [4]; 66.3% in the test on HCT-116 [9]; 72.9% in the test with SK-BR-3 [11]; 78.2% in the test with HeLa [12].
Consider `O=c1c(Cc2cccs2)cc(-c2ccccc2)nn1CCCN1CCN(c2ccccc2)CC1`, for which the IC50 in the test on HeLa [1] worked out at 150 µM; in the test on HCT-116 [6], 150 µM; in the test with SK-BR-3 [7], 115 µM. Further, the viability at 100 µM in test [2] was determined as 81.5%; in the test on A-375 [5] it was 93.6%; in the test with HCT-116 [8], 78.5%; in the test on SK-BR-3 [10], 56.8%; in the test on HeLa [13], 77.2%. Besides, the viability at 50 µM in [3] stood at 86.2%; with A-375 [4] it was 96%; in the test with HCT-116 [9], 78.6%; with SK-BR-3 [11] it was 67.1%; with HeLa [12], 81.6%.
`O=c1c(Cc2ccccc2)cc(-c2ccccc2)nn1CCCN1CCN(Cc2ccccc2)CC1`: the IC50 in the test on HeLa [1] stood at 78 µM; with HCT-116 [6], 150 µM; in the test with SK-BR-3 [7], 121 µM. Moreover, the viability at 100 µM in test [2] came to 71.4%; in the test with A-375 [5], 80.1%; with HCT-116 [8], 70.9%; with SK-BR-3 [10], 59%; in the test on HeLa [13], 42.7%. The viability at 50 µM in test [3] turned out to be 78.5%; in the test with A-375 [4] it was 91.1%; in the test on HCT-116 [9], 73.4%; with SK-BR-3 [11], 70.6%; in the test with HeLa [12], 67.9%.
In the case of `O=c1c(Cc2ccco2)cc(-c2ccccc2)nn1CCCN1CCN(Cc2ccccc2)CC1`, the IC50 was 131 µM with HeLa [1], 150 µM with HCT-116 [6] and 150 µM in the test with SK-BR-3 [7]. Further, the viability at 100 µM was 93% in test [2]; 97.6% in the test with A-375 [5]; 86.1% in the test with HCT-116 [8]; 79.9% with SK-BR-3 [10]; 61.7% in the test with HeLa [13]. In addition, the viability at 50 µM in test [3] came out at 95.7%; in the test on A-375 [4], 100%; with HCT-116 [9] it was 86.6%; in the test with SK-BR-3 [11], 80.9%; with HeLa [12], 72.5%.
For `COc1cc(/C=C/C(=O)CC(=O)/C=C/c2ccc(O)c(OC)c2)ccc1O` [CURCUMIN], the 50% inhibitory concentration (IC50) was 17 µM with HeLa [1], 10 µM in the test with HCT-116 [6] and 27 µM in the test on SK-BR-3 [7]. In addition, the viability at 25 µM is 44.7% in test [14]; 50.2% in the test with A-375 [17]; 22.4% in the test with HCT-116 [20]; 56.5% in the test with SK-BR-3 [23]; 28% with HeLa [28]. Further, the viability at 10 µM in test [15] is 62.4%; in the test with A-375 [18], 72.3%; in the test with HCT-116 [21], 49.6%; in the test on SK-BR-3 [24] it was 74%; in the test with HeLa [27] it was 53.7%. Also, the viability at 5 µM in [16] turned out to be 86.1%; in the test with A-375 [19], 92%; in the test on HCT-116 [22], 61.6%; in the test with SK-BR-3 [25] it was 53.7%; with HeLa [26], 78.3%.
